Experiments:
soybean (Glycine max) [1] = assay: Herbicidal effect test by soil treatment; type: in vivo; conditions: 1.6 g/a, 3 weeks after treatment
Excerpt: (§1) Herbicidal Effect Test by Soil Treatment
(§2) Sterilized diluvial soil was placed in a plastic box having a size of length 21 cm, width 13 cm and depth 7 cm, seeds Echinochloa crus-galli, Digitaria adscendes, Setaria viridis, Avena fatua, Black-grass, Abutilon avicennae, Ambrosia elatior, Amaranthus retroflexus, Chenopodium album, Polygonum blumei, Stellaria media, Zea mays (corn), Glycine max (soybean), Oryza sativa (rice), Triticum aestivum (wheat) and Beta vulgaris (beat) were sown interspatially, covered with about 1.5 cm of soil, and then the wettable powder of the present invention prepared according to Formulation Example 1 was diluted with water so as to give a predetermined formulation amount, and the surface of the soil was uniformly treated with the diluted wettable powder by use of a small-sized spray. The herbicidal effect for each plant was investigated 3 weeks after treatment with the herbicide according to the criteria indicated in Test Example 1.

Avena fatua [2] = assay: Herbicidal effect test by soil treatment; type: in vivo; conditions: 1.6 g/a, 3 weeks after treatment
Excerpt: as §1, §2

Stellaria media [3] = assay: Herbicidal effect test by soil treatment; type: in vivo; conditions: 1.6 g/a, 3 weeks after treatment
Excerpt: as §1, §2

Beta vulgaris (beet) [4] = assay: Herbicidal effect test by soil treatment; type: in vivo; conditions: 1.6 g/a, 3 weeks after treatment
Excerpt: as §1, §2

Chenopodium album [5] = assay: Herbicidal effect test by soil treatment; type: in vivo; conditions: 1.6 g/a, 3 weeks after treatment
Excerpt: as §1, §2

Digitaria adscendes [6] = assay: Herbicidal effect test by soil treatment; type: in vivo; conditions: 1.6 g/a, 3 weeks after treatment
Excerpt: as §1, §2

Setaria viridis [7] = assay: Herbicidal effect test by soil treatment; type: in vivo; conditions: 1.6 g/a, 3 weeks after treatment
Excerpt: as §1, §2

corn (Zea mays) [8] = assay: Herbicidal effect test by soil treatment; type: in vivo; conditions: 1.6 g/a, 3 weeks after treatment
Excerpt: as §1, §2

Amaranthus retroflexus [9] = assay: Herbicidal effect test by soil treatment; type: in vivo; conditions: 1.6 g/a, 3 weeks after treatment
Excerpt: as §1, §2

Echinochloa crus-galli [10] = assay: Herbicidal effect test by soil treatment; type: in vivo; conditions: 1.6 g/a, 3 weeks after treatment
Excerpt: as §1, §2

Black-grass = assay: Herbicidal effect test by soil treatment; type: in vivo; conditions: 1.6 g/a, 3 weeks after treatment
Excerpt: as §1, §2

Polygonum blumei [11] = assay: Herbicidal effect test by soil treatment; type: in vivo; conditions: 1.6 g/a, 3 weeks after treatment
Excerpt: as §1, §2

[12] = tested on: Triticum aestivum (wheat); assay: Herbicidal effect test by soil treatment; type: in vivo; conditions: 1.6 g/a, 3 weeks after treatment
Excerpt: as §1, §2

Ambrosia elatior [13] = assay: Herbicidal effect test by soil treatment; type: in vivo; conditions: 1.6 g/a, 3 weeks after treatment
Excerpt: as §1, §2

Abutilon avicennae [14] = assay: Herbicidal effect test by soil treatment; type: in vivo; conditions: 1.6 g/a, 3 weeks after treatment
Excerpt: as §1, §2

soybean (Glycine max) [15] = assay: Herbicidal effect test by foliage treatment; type: in vivo; conditions: 1.6 g/a; foliage treatment after growth of 14 days; 3 weeks after treatment
Excerpt: (§3) Herbicidal Effect Test by Foliage Treatment
(§4) Sterilized diluvial soil was placed in a plastic box having a size of length 21 cm, width 13 cm and depth 7 cm, seeds of Echinochloa crus-galli, Digitaria adscendes, Setaria viridis, Avena fatua, Black-grass, Abutilon avicennae, Ambrosia elatior, Amaranthus retroflexus, Chenopodium album, Polygonum blumei, Stellaria media, Zea mays, Glycine max, Oryza sativa, Triticum aestivum and Beta vulgaris were sown interspatially, covered with about 1.5 cm of soil, and then the plants were grown by putting the box in a green house at 25 to 30° C. After growth of 14 days, the wettable powder of the present invention prepared according to Formulation Example 1 was diluted with water so as to give a predetermined formulation amount, and the foliage part was uniformly treated with the diluted wettable powder by use of a small-sized spray. The herbicidal effect for each plant was investigated 3 weeks after treatment with the herbicide according to the criteria indicated in Test Example 1.

Avena fatua [16] = assay: Herbicidal effect test by foliage treatment; type: in vivo; conditions: 1.6 g/a; foliage treatment after growth of 14 days; 3 weeks after treatment
Excerpt: as §3, §4

Stellaria media [17] = assay: Herbicidal effect test by foliage treatment; type: in vivo; conditions: 1.6 g/a; foliage treatment after growth of 14 days; 3 weeks after treatment
Excerpt: as §3, §4

Beta vulgaris (beet) [18] = assay: Herbicidal effect test by foliage treatment; type: in vivo; conditions: 1.6 g/a; foliage treatment after growth of 14 days; 3 weeks after treatment
Excerpt: as §3, §4

Chenopodium album [19] = assay: Herbicidal effect test by foliage treatment; type: in vivo; conditions: 1.6 g/a; foliage treatment after growth of 14 days; 3 weeks after treatment
Excerpt: as §3, §4

Digitaria adscendes [20] = assay: Herbicidal effect test by foliage treatment; type: in vivo; conditions: 1.6 g/a; foliage treatment after growth of 14 days; 3 weeks after treatment
Excerpt: as §3, §4

Setaria viridis [21] = assay: Herbicidal effect test by foliage treatment; type: in vivo; conditions: 1.6 g/a; foliage treatment after growth of 14 days; 3 weeks after treatment
Excerpt: as §3, §4

corn (Zea mays) [22] = assay: Herbicidal effect test by foliage treatment; type: in vivo; conditions: 1.6 g/a; foliage treatment after growth of 14 days; 3 weeks after treatment
Excerpt: as §3, §4

Amaranthus retroflexus [23] = assay: Herbicidal effect test by foliage treatment; type: in vivo; conditions: 1.6 g/a; foliage treatment after growth of 14 days; 3 weeks after treatment
Excerpt: as §3, §4

Echinochloa crus-galli [24] = assay: Herbicidal effect test by foliage treatment; type: in vivo; conditions: 1.6 g/a; foliage treatment after growth of 14 days; 3 weeks after treatment
Excerpt: as §3, §4

Polygonum blumei [25] = assay: Herbicidal effect test by foliage treatment; type: in vivo; conditions: 1.6 g/a; foliage treatment after growth of 14 days; 3 weeks after treatment
Excerpt: as §3, §4

[26] = tested on: Triticum aestivum (wheat); assay: Herbicidal effect test by foliage treatment; type: in vivo; conditions: 1.6 g/a; foliage treatment after growth of 14 days; 3 weeks after treatment
Excerpt: as §3, §4

Ambrosia elatior [27] = assay: Herbicidal effect test by foliage treatment; type: in vivo; conditions: 1.6 g/a; foliage treatment after growth of 14 days; 3 weeks after treatment
Excerpt: as §3, §4

Abutilon avicennae [28] = assay: Herbicidal effect test by foliage treatment; type: in vivo; conditions: 1.6 g/a; foliage treatment after growth of 14 days; 3 weeks after treatment
Excerpt: as §3, §4

Scirpus juncoides [29] = assay: Herbicidal effect test in submerged condition by treatment before weed-generation (1); type: in vivo; conditions: 0.64 g/a, water surface treated on day of sowing, 3 weeks after treatment
Excerpt: (§5) Herbicidal Effect Test in Submerged Condition by Treatment Before Weed-Generation (1)
(§6) After alluvial soil was placed in a styrol cup of 1/30000 are, water was poured therein and mixed, and adjusted to a submerged condition of water depth 4 cm. After seeds of Echinochloa crus-galli, Scirpus juncoides and Monochoria vaginalis were sown in the cup, rice seedlings at 2.5th leaf stage were transplanted. On the day when the seeds were sown, the wettable powder of the present invention prepared according to Formulation Example 1 was diluted with water so as to give a predetermined formulation amount, and the surface of the water was treated with the diluted wettable powder. The plants were grown by putting the cup in a green house at 25 to 30° C., and investigated on herbicidal effect against each weed 3 weeks after treatment with the herbicide according to the following criteria.
(§7) 5 Herbicidal rate 90% or more (almost complete death)
(§8) 4 Herbicidal rate 70% or more and less than 90%
(§9) 3 Herbicidal rate 40% or more and less than 70%
(§10) 2 Herbicidal rate 20% or more and less than 40%
(§11) 1 Herbicidal rate 5% or more and less than 20%
(§12) 0 Herbicidal rate 5% or less (little effect)

Echinochloa crus-galli [30] = assay: as above; type: in vivo; conditions: 0.64 g/a, water surface treated on day of sowing, 3 weeks after treatment
Excerpt: as §5, §6, §7, §8, §9, §10, §11, §12

Monochoria vaginalis [31] = assay: as above; type: in vivo; conditions: 0.64 g/a, water surface treated on day of sowing, 3 weeks after treatment
Excerpt: as §5, §6, §7, §8, §9, §10, §11, §12

Scirpus juncoides [32] = assay: Herbicidal effect test in submerged condition by treatment during weed-growth stage (1); type: in vivo; conditions: 0.64 g/a, treated at 1st to 2nd leaf stage, 3 weeks after treatment
Method: (§13) Herbicidal Effect Test in Submerged Condition by Treatment During Weed-Growth Stage (1) After alluvial soil was placed in a styrol cup of 1/30000 are, water was poured therein and mixed, and adjusted to a submerged condition of water depth 4 cm. After seeds of Echinochloa crus-galli, Scirpus juncoides and Monochoria vaginalis were sown in the cup, the plants were grown by putting the cup in a green house at 25 to 30° C. When Echinochloa crus-galli, Scirpus juncoides and Monochoria vaginalis reached 1st to 2nd leaf stage, the wettable powder of the present invention prepared according to Formulation Example 1 was diluted with water so as to give a predetermined formulation amount, and the surface of the water was treated with the diluted wettable powder. The herbicidal effect for each plant was investigated 3 weeks after treatment with the herbicide according to the criteria indicated in Test Example 1.

Echinochloa crus-galli [33] = assay: as above; type: in vivo; conditions: 0.64 g/a, treated at 1st to 2nd leaf stage, 3 weeks after treatment
Method: as §13

Monochoria vaginalis [34] = assay: as above; type: in vivo; conditions: 0.64 g/a, treated at 1st to 2nd leaf stage, 3 weeks after treatment
Method: as §13

direct sown rice [35] = assay: Herbicidal effect test by foliage treatment; type: in vivo, Oryza sativa; conditions: 1.6 g/a; foliage treatment after growth of 14 days; 3 weeks after treatment
Excerpt: as §3, §4

direct sown rice [36] = assay: Herbicidal effect test by soil treatment; type: in vivo, Oryza sativa; conditions: 1.6 g/a, 3 weeks after treatment
Excerpt: as §1, §2

COc1cc(OC)nc(NC(=O)NS(=O)(=O)c2c(C3=NOCC(C)(C)O3)c(Cl)nn2C)n1 [Compound 3, N-((4,6-dimethoxypyrimidin-2-yl)aminocarbonyl)-3-chloro-4-(5,5-dimethyl-5H,6H-1,4,2-dioxadin-3-yl)-1-methylpyrazole-5-sulfonamide]
herbicidal effect, c: soybean (Glycine max) (soybean (Glycine max) [1]): 1 (Herbicidal rate 5% or more and less than 20%) | herbicidal effect, F: Avena fatua (Avena fatua [2]): 0 (Herbicidal rate 5% or less (little effect)) | herbicidal effect, M: Stellaria media (Stellaria media [3]): 5 (Herbicidal rate 90% or more (almost complete death)) | herbicidal effect, f: Beta vulgaris (beet) (Beta vulgaris (beet) [4]): 4 (Herbicidal rate 70% or more and less than 90%) | herbicidal effect, K: Chenopodium album (Chenopodium album [5]): 3 (Herbicidal rate 40% or more and less than 70%) | herbicidal effect, D: Digitaria adscendes (Digitaria adscendes [6]): 2 (Herbicidal rate 20% or more and less than 40%) | herbicidal effect, E: Setaria viridis (Setaria viridis [7]): 0 (Herbicidal rate 5% or less (little effect)) | herbicidal effect, b: corn (Zea mays) (corn (Zea mays) [8]): 3 (Herbicidal rate 40% or more and less than 70%) | herbicidal effect, J: Amaranthus retroflexus (Amaranthus retroflexus [9]): 4 (Herbicidal rate 70% or more and less than 90%) | herbicidal effect, A: Echinochloa crus-galli (Echinochloa crus-galli [10]): 2 (Herbicidal rate 20% or more and less than 40%) | herbicidal effect, G: Black-grass (Black-grass): 3 (Herbicidal rate 40% or more and less than 70%) | herbicidal effect, L: Polygonum blumei (Polygonum blumei [11]): 5 (Herbicidal rate 90% or more (almost complete death)) | herbicidal effect, e: Triticum aestivum (wheat) [12]: 0 (Herbicidal rate 5% or less (little effect)) | herbicidal effect, I: Ambrosia elatior (Ambrosia elatior [13]): 5 (Herbicidal rate 90% or more (almost complete death)) | herbicidal effect, H: Abutilon avicennae (Abutilon avicennae [14]): 5 (Herbicidal rate 90% or more (almost complete death)) | herbicidal effect, c: soybean (Glycine max) (soybean (Glycine max) [15]): 5 (Herbicidal rate 90% or more (almost complete death)) | herbicidal effect, F: Avena fatua (Avena fatua [16]): 0 (Herbicidal rate 5% or less (little effect)) | herbicidal effect, M: Stellaria media (Stellaria media [17]): 5 (Herbicidal rate 90% or more (almost complete death)) | herbicidal effect, f: Beta vulgaris (beet) (Beta vulgaris (beet) [18]): 3 (Herbicidal rate 40% or more and less than 70%) | herbicidal effect, K: Chenopodium album (Chenopodium album [19]): 2 (Herbicidal rate 20% or more and less than 40%) | herbicidal effect, D: Digitaria adscendes (Digitaria adscendes [20]): 3 (Herbicidal rate 40% or more and less than 70%) | herbicidal effect, E: Setaria viridis (Setaria viridis [21]): 2 (Herbicidal rate 20% or more and less than 40%) | herbicidal effect, b: corn (Zea mays) (corn (Zea mays) [22]): 4 (Herbicidal rate 70% or more and less than 90%) | herbicidal effect, J: Amaranthus retroflexus (Amaranthus retroflexus [23]): 0 (Herbicidal rate 5% or less (little effect)) | herbicidal effect, A: Echinochloa crus-galli (Echinochloa crus-galli [24]): 4 (Herbicidal rate 70% or more and less than 90%) | herbicidal effect, L: Polygonum blumei (Polygonum blumei [25]): 3 (Herbicidal rate 40% or more and less than 70%) | herbicidal effect, e: Triticum aestivum (wheat) [26]: 0 (Herbicidal rate 5% or less (little effect)) | herbicidal effect, I: Ambrosia elatior (Ambrosia elatior [27]): 5 (Herbicidal rate 90% or more (almost complete death)) | herbicidal effect, H: Abutilon avicennae (Abutilon avicennae [28]): 5 (Herbicidal rate 90% or more (almost complete death)) | herbicidal effect, B: Scirpus juncoides (Scirpus juncoides [29]): 5 (Herbicidal rate 90% or more (almost complete death)) | herbicidal effect, A: Echinochloa crus-galli (Echinochloa crus-galli [30]): 5 (Herbicidal rate 90% or more (almost complete death)) | herbicidal effect, C: Monochoria vaginalis (Monochoria vaginalis [31]): 5 (Herbicidal rate 90% or more (almost complete death)) | herbicidal effect, B: Scirpus juncoides (Scirpus juncoides [32]): 5 (Herbicidal rate 90% or more (almost complete death)) | herbicidal effect, A: Echinochloa crus-galli (Echinochloa crus-galli [33]): 5 (Herbicidal rate 90% or more (almost complete death)) | herbicidal effect, C: Monochoria vaginalis (Monochoria vaginalis [34]): 5 (Herbicidal rate 90% or more (almost complete death)) | herbicidal effect, d: direct sown rice (direct sown rice [35]): 0 (Herbicidal rate 5% or less (little effect)) | herbicidal effect, d: direct sown rice (direct sown rice [36]): 0 (Herbicidal rate 5% or less (little effect))

— US7709636B2, “Pyrazole sulfonylurea compound and herbicide” (Nissan Chemical Industries, Ltd., priority 2004, dated 2010)
